Three compounds from paper PMC6151990, “Effects of P-Glycoprotein on the Transport of DL0410, a Potential Multifunctional Anti-Alzheimer Agent” (Molecules : A Journal of Synthetic Chemistry and Natural …, 2017) can be followed below.

One data set relates to P-gp (MDR1). Briefly: Transcellular transport across MDCK-MDR1 cell monolayer. Type of data set: in vitro ADME, Canine. Particulars: dog, pH 7.4; MDCK-MDR1, DL0410 10 μM; read-out: ER.
The next data set relates to MDCK-MDR1 cell monolayer. Described as above. Type of data set: in vitro ADME, Canine. Particulars: ER MDCK-MDR1 / ER MDCK.
Data set [1] relates to P-gp. The data set is described as above. In kind it is in vitro ADME, Canine. The note with it: dog, pH 7.4.
Protocol: (§2) Caco-2, MDCK and MDCK-MDR1cells were cultured at seeding densities of 1 × 10^5, 2 × 10^5, 2 × 10^5 cells/cm^2, respectively, onto polycarbonate membrane transwell inserts in 12-well plates. Prior to performing the transport studies, we determined the values of Trans Epithelial Electric Resistance (TEER) and Papp values of fluorescein to ensure the integrity of the monolayers [16]. After seeding for 18 and 21 days, the cultural medium of transwell chambers was removed carefully and washed twice with HBSS (pH 7.4, 37 °C), and then pre-incubated for 30 min at 37 °C. The transwell chambers were incubated for 20 min at 37 °C. […] After incubation for 2 h, the liquor of each side was collected for determination.
(§3) To analyze DL0410 in HBSS buffer, 15 µL of IS working solution (phenacetin, 1 µg/mL) and 150 µL sample were mixed with 1000 µL ethyl acetate to extract the analytes, and then vortexed for 5 min. After centrifuging at 13,000 rpm for 10 min, the supernatant was added into another tube carefully and evaporated to dryness under a gentle flow of nitrogen gas. The residue was reconstituted in 60 µL acetonitrile–water (20:80, v/v, containing 0.5% formic acid). After centrifugation, the supernatant was used for analysis. The analytical column was Agilent Zorbax SD-C18 (100 mm × 2.1 mm, 3.5 µm; Agilent Technologies, Santa Clara, CA, USA). The mobile phase was made up of acetonitrile–water (0.5% formic acid) (20:80, v/v). Injection volume, flow rate, and column temperature were 20 µL, a 0.3 mL/min, and 35 °C, respectively. The mass spectrometer was operated in the positive scan mode. The conditions of ESI source were as follows: drying gas flow was set at 10 L/min, nebulizer pressure was 35.0 psig, capillary voltage was 3000 V, and drying gas temperature was 350 °C. The ESI was performed using nitrogen to assist nebulization.
(§4) The Papp values (cm/s) were computed according to the following equation [16], Papp=V/C0×1/S×dC/dt (V: volume of medium in the receiver chamber (mL); C0: initial concentration in the donor chamber (µM/mL), S: the surface area of monolayer (cm^2); dC/dt: variance rate in the receptor chamber of concentration with time (µM/mL/s)) The ER was calculated by the Papp value from BL to AP divided by Papp value from AP to BL. In MDCK-MDR1 and MDCK cell models, the NER was measured by comparing the ER values as follows [16]. (1) ER=Papp(B−A)/Papp(A−B) (2) NER=ERMDCK−MDR1/ERMDCK
A short description of data set [2]: Transcellular transport across MDCK cell monolayer. Particulars: dog. In kind it is in vitro ADME, Canine.
Protocol: as §2, §3, §4
The next data set has as its system MDCK-MDR1 cells. Kind of data set: CCK-8 cytotoxicity assay, MDCK-MDR1. Particulars: MDCK-MDR1, 100 µM, 12 h. In kind it is cell-based, Canine. As for the experimental part: (§1) The cytotoxicity of DL0410 was determined by the CCK-8 assay. Caco-2 Cells, at a density of 1 × 10^5 cells/mL, were seeded in 96-well plates for culture. The seeding density of MDCK and MDCK-MDR1cells were 0.8 × 10^5 cells/mL. Two days after seeding, increasing concentrations (0.1, 1, 10, 100 µM) of DL0410 were added for treatment, and cytotoxicity was measured after 12 h by the CCK-8 assay.
In general terms: Tetrazolium dyes change colour on reduction, which living cells bring about.

Data set [3] can be described thus: Transcellular transport across Caco-2 cell monolayer. Type of data set: in vitro ADME. Particulars: human. (In general: Passage across Caco-2 layers is used to estimate intestinal permeability.)
Protocol: as §2, §3, §4
A further data set has as its system MDCK cells. Briefly: CCK-8 cytotoxicity assay, MDCK. In kind it is cell-based, Canine. Particulars: 100 µM, 12 h. As for the experimental part: as §1
Data set [4] concerns the target T1, P-gp (Homo sapiens, UniProt P08183).
T1 construct: expressed in transfected cells; host or cells: MDCK-MDR1 (canine kidney MDCK cells transfected with the human MDR1 gene)
Kind of data set: Effect on Rho123 transport (BL to AP) in MDCK-MDR1 cells. Particulars: MDCK-MDR1, Rho123 10 µM, DL0410 50 µM, 2 h. In kind it is cell-based.

Another data set has as its target human P-gp membranes (Homo sapiens, UniProt P08183). Briefly: P-gp ATPase activity (Pgp-Glo assay). Particulars: P-gp ATPase stimulation.
Another data set concerns Caco-2 cells. Briefly: CCK-8 cytotoxicity assay, Caco-2. In kind it is cell-based, human. The note with it: Caco-2, 100 µM, 12 h. The protocol: as §1
Data set [5] is described as follows: Transcellular transport across MDCK-MDR1 cell monolayer. In kind it is in vitro ADME, Canine. Particulars: dog; MDCK-MDR1 monolayer, integrity control; read-out: permeability value.
Protocol: as §2, §3, §4
The test system of another data set is Caco-2 cell monolayer. Kind of data set: Transcellular transport across Caco-2 cell monolayer. In kind it is in vitro ADME. The note with it: human, Caco-2.

Each structure is given as a SMILES string. Where a name gives a salt, the structure may show the parent alone.

Sequence of human P-gp membranes (P08183 whole entry): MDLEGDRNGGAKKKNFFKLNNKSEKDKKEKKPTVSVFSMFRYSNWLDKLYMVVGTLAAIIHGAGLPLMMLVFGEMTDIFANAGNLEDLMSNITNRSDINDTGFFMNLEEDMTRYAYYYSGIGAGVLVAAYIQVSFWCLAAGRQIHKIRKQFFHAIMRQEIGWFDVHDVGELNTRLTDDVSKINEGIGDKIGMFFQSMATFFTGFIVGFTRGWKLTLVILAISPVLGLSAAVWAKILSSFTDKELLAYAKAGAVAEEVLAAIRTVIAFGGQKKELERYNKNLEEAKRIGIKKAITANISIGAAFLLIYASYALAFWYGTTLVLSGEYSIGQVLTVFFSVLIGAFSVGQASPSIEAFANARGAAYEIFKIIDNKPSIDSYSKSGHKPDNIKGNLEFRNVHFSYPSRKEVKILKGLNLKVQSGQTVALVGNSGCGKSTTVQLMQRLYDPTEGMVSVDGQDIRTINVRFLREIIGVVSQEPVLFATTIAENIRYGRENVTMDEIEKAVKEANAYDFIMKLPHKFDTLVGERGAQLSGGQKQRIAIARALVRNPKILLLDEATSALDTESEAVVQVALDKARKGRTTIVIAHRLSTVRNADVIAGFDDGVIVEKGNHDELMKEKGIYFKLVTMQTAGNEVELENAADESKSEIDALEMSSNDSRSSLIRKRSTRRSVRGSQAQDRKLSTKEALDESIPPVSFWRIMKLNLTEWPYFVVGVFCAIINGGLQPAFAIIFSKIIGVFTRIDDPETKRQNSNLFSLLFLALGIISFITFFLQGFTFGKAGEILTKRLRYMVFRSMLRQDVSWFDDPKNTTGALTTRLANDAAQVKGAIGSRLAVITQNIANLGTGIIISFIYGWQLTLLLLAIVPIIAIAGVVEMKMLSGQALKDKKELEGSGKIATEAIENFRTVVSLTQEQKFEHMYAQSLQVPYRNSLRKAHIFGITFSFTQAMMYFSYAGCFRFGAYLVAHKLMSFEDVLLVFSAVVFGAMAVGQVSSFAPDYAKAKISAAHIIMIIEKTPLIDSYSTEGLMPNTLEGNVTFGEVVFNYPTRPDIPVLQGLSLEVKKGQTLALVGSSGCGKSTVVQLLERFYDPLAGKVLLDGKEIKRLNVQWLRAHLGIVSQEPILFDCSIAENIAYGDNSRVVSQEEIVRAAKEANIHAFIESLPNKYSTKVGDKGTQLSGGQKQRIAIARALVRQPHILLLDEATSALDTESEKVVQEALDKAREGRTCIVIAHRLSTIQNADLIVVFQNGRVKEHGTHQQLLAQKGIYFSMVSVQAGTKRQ
T1 sequence (P08183 whole entry): as above
Protocol for P-gp (MDR1): as §2, §3, §4

In general, Papp A→B refers to how fast a substance crosses the layer from the apical side. A higher Papp A→B goes with ready permeation. Broadly, the Papp B→A is how fast a substance crosses the layer from the basolateral side. With `O=C(CCN1CCCCC1)c1ccc(-c2ccc(C(=O)CCN3CCCCC3)cc2)cc1` [DL0410, 1,1’-([1,1’-Biphenyl]-4,4’-diyl)bis(3-(piperidin-1-yl)propan-1-one)dihydrochloride], the efflux ratio at 2 h, 10 µM was found to be 14.9 in the data set with P-gp (MDR1); 1.41 in data set [2] (pH 7.4, MDCK, DL0410 10 μM, read-out: ER); 4.52 in data set [3] (pH 7.4, Caco-2, DL0410 10 μM, read-out: ER). The NER is reported as 10.588 with MDCK-MDR1 cell monolayer (DL0410 10 μM), 8.770 in the data set with MDCK-MDR1 cell monolayer (DL0410 30 μM), 0.311 in the data set on MDCK-MDR1 cell monolayer (DL0410 30 μM + verapamil (50 μM)) and 5.556 in the data set on MDCK-MDR1 cell monolayer (DL0410 100 μM). The Papp A→B at 2 h, 10 µM in the data set on P-gp [1] (MDCK-MDR1, DL0410 10 μM) is 0.297 ± 0.111 ×10⁻⁶ cm/s; in [2] (pH 7.4, MDCK, DL0410 10 μM), 0.502 ± 0.103 ×10⁻⁶ cm/s; in data set [3] (pH 7.4, Caco-2, DL0410 10 μM), 0.725 ± 0.184 ×10⁻⁶ cm/s. The Papp B→A at 2 h, 10 µM is 4.43 ± 0.376 ×10⁻⁶ cm/s with P-gp [1] (MDCK-MDR1, DL0410 10 μM); 0.708 ± 0.114 ×10⁻⁶ cm/s in data set [2] (pH 7.4, MDCK, DL0410 10 μM); 3.27 ± 0.251 ×10⁻⁶ cm/s in data set [3] (pH 7.4, Caco-2, DL0410 10 μM). The Papp A→B at 2 h, 30 µM was determined as 0.31 ± 0.021 ×10⁻⁶ cm/s with P-gp [1] (MDCK-MDR1, DL0410 30 μM); 0.74 ± 0.023 ×10⁻⁶ cm/s in [2] (pH 7.4, MDCK, DL0410 30 μM); 0.841 ± 0.098 ×10⁻⁶ cm/s in [3] (pH 7.4, Caco-2, DL0410 30 μM). In addition, the Papp B→A at 2 h, 30 µM with P-gp [1] (MDCK-MDR1, DL0410 30 μM) is 3.21 ± 0.061 ×10⁻⁶ cm/s; in data set [2] (pH 7.4, MDCK, DL0410 30 μM), 0.871 ± 0.068 ×10⁻⁶ cm/s; in data set [3] (pH 7.4, Caco-2, DL0410 30 μM), 3.45 ± 0.619 ×10⁻⁶ cm/s. Further, the efflux ratio at 2 h, 30 µM with P-gp [1] (MDCK-MDR1, DL0410 30 μM, read-out: ER) stood at 10.3; in data set [2] (pH 7.4, MDCK, DL0410 30 μM, read-out: ER), 1.18; in [3] (pH 7.4, Caco-2, DL0410 30 μM, read-out: ER), 4.1. In addition, the Papp A→B at 2 h, 100 µM with P-gp [1] (MDCK-MDR1, DL0410 100 μM) is 0.321 ± 0.039 ×10⁻⁶ cm/s; in data set [2] (pH 7.4, MDCK, DL0410 100 μM), 0.95 ± 0.116 ×10⁻⁶ cm/s; in [3] (pH 7.4, Caco-2, DL0410 100 μM), 1.28 ± 0.017 ×10⁻⁶ cm/s. Moreover, the Papp B→A at 2 h, 100 µM in the data set with P-gp [1] (MDCK-MDR1, DL0410 100 μM) amounted to 1.73 ± 0.105 ×10⁻⁶ cm/s; in data set [2] (pH 7.4, MDCK, DL0410 100 μM) it was 0.924 ± 0.005 ×10⁻⁶ cm/s; in data set [3] (pH 7.4, Caco-2, DL0410 100 μM), 2.38 ± 0.138 ×10⁻⁶ cm/s. Also, the efflux ratio at 2 h, 100 µM turned out to be 5.41 in the data set on P-gp [1] (MDCK-MDR1, DL0410 100 μM, read-out: ER); 0.973 in data set [2] (pH 7.4, MDCK, DL0410 100 μM, read-out: ER); 1.86 in [3] (pH 7.4, Caco-2, DL0410 100 μM, read-out: ER). For the same compound, the efflux ratio at 2 h in data set [2] (pH 7.4, MDCK cells, summary value in text, read-out: ER) was about 1. Besides, the cytotoxicity result in the data set on MDCK-MDR1 cells, with MDCK cells and in the data set on Caco-2 cells was “no significant cytotoxic effect” in each case. Further, the Papp at 2 h in data set [3] (pH 7.4, Caco-2, summary value in text (A→B), read-out: apparent permeability (Papp)) is about 1 ×10⁻⁶ cm/s. Further, the “effect on Rho123 transport from BL to AP” value at P-gp [4] is “reduced Rho123 efflux”. Moreover, at human P-gp membranes, the “concentration at which the activity of ATPase was saturated” value is 150 µM.

On to `COc1ccc(CCN(C)CCCC(C#N)(c2ccc(OC)c(OC)c2)C(C)C)cc1OC` (stereo not shown) [Verapamil, reference compound], for which the “concentration at which the activity of ATPase was saturated” value at human P-gp membranes is reported as 100 µM.

In the case of `O=C1OC2(c3ccc(O)cc3Oc3cc(O)ccc32)c2ccccc21` [fluorescein, reference compound], the Papp in data set [5] worked out at 0.571 ×10⁻⁶ cm/s; in data set [2] (MDCK monolayer, integrity control, read-out: permeability value) it was 0.702 ×10⁻⁶ cm/s; in data set [3] (Caco-2 monolayer, integrity control, read-out: apparent permeability (Papp)), 1.09 ×10⁻⁶ cm/s. Moreover, in the data set on Caco-2 cell monolayer, the penetration rate stood at 0.10%.
